Test results taken from US20150299125A1, “PRODRUG BIPYRIDYLAMINOPYRIDINES AS SYK INHIBITORS” (MERCK SHARP & DOHME CORP., priority 2012, published 2015).
Converted amounts (≈) assume the structure as drawn.

Legend:
[1] = target: T1, recombinant human GST-Syk (Homo sapiens, UniProt P43405); assay: Homogeneous Time-Resolved Fluorescence (HTRF) assay for the recombinant human Syk enzyme; assay type: biochemical; conditions: recombinant human GST-Syk 5 pM, ATP 25 μM, read-out: IC50
T1 construct: purchased Carna Biosciences 08-176
In short: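 HTRF read-out, taken 30 min after adding 2 nM europium anti-pTyr antibody plus 70 nM streptavidin-APC in 40 mM EDTA/Tris pH 7.5, detects peptide phosphorylated by GST-tagged human Syk during a 45-min room-temperature reaction.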

[2] = Conversion of prodrug to parent in liver homogenate; assay type: in vitro ADME; conditions: prodrug 1 μM, liver S9 1 mg protein/mL, 37° C., pH 7.4, 2 h
Experimental: Conversion of Prodrug to Parent in Liver Homogenate:
(§1) The likely stability of prodrugs in the liver can be estimated by incubating a prodrug with liver homogenate. Incubations of prodrugs (1 μM) with liver S9 (1 mg protein/mL) were carried out at 37° C. in a phosphate buffer, pH 7.4. Control incubations contained BSA (1.1 mg/mL) instead of liver S9 microsomes. Aliquots were removed at 0, 5, 15, 30, 60 and 120 min, treated with 4 volumes of acetonitrile containing 2% formic acid and an internal standard, and centrifuged. The supernatants were analyzed by LC-MS/MS for prodrug disappearance and appearance of active drug. The half-life of the prodrug was calculated from the % prodrug remaining at different time points calculated from on the peak area ratio relative to t=0. The amount of active drug generated at the different time points was determined using a standard curve.

[3] = Conversion of prodrug to parent in intestine homogenate; assay type: in vitro ADME; conditions: prodrug 1 μM, intestine S9 1 mg protein/mL, 37° C., pH 7.4, 2 h
Experimental: Conversion of Prodrug to Parent in Intestine Homogenate:
as §1, with “intestine” for “liver”

Blood stability assay = assay type: in vitro ADME; conditions: whole blood; human blood, 37° C.
Experimental: The likely stability of prodrugs in the blood can be estimated by incubating a prodrug with blood. A prodrug stock solution was prepared at 10 mM in DMSO and working solutions (100 μM) containing the prodrug were prepared by diluting a suitable amount of the stock solution with acetonitrile/water (50/50). 5 μL of the working solution were added to 495 μL of pre-warmed blood (at 37° C.). After vortexing and mixing, 50 μL of the spiked blood sample were taken for the 0 time point and transferred to another vial containing 200 μL of quenching solution (labetalol, alprazolam and diclofenac in 100% acetonitrile) ensuring that the vial is lidded to prevent evaporation and kept on ice. While keeping the spiked blood sample at 37° C. at the following timepoints (0.25, 0.5, 1, 2 and 3 h) 5 additional aliquots (50 μL) were sampled and mixed with the quenching solution. At the end of the experiment the quenched samples were vortexed for 2 minutes and centrifuged for 10 minutes at 4000 rpm. The supernatant (100 μL) was then transferred and collected into a new 96-well plate and injected into the LC-MS/MS for analysis. For each test compound, the area ratios at each time point to the 0 hour area ratio were compared and converted to a percentage remaining. The percentage remaining were then plotted against time (h) and half life generated using the following equation t½=0.693/kel. Where kel is the elimination rate constant which is determined from the concentration versus time curve by linear regression at the terminal phase of the semi-logarithmic plot.

[4] = Solubility in biorelevant fasted state simulated intestinal fluid (FaSSIF); assay type: physicochemical; conditions: 25 °C, fassif, kinetic from dmso stock, Solubility
In short: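 Compound from 10 mM DMSO stock diluted into FaSSIF (maximum solubility approximately 200 μM), equilibrated, then filtered by centrifugation through a 0.45 μm polypropylene membrane. Filtrate and a 100 μM standard analysed by HPLC/DAD; solubility = (sample peak area/standard peak area) × standard concentration.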

[5] = Conversion of prodrug to parent in in vitro biorelevant gastrointestinal tract media; assay type: in vitro ADME; conditions: 37° C.
Experimental: Conversion of Prodrug to Parent in In Vitro Biorelevant Gastrointestinal Tract Media: The likely stability of prodrugs in the gastrointestinal tract can be estimated by incubating a prodrug in simulated gastric and intestinal fluids; compounds were measured for stability in simulated gastric fluid (SGF), fasted state simulated intestinal fluid (FaSSIF), and fasted state simulated intestinal fluid plus pancreatin (FaSSIF+pancreatin). Prodrug stock solutions were made by diluting 2 mg of compound in 200 μL DMSO. A 10 mg/mL Pancreatin in FaSSIF stock solution was made by dissolving 10 mg Pancreatin in 1 mL FaSSIF. Samples were prepared by diluting 10 μL of compound stock solution into 990 μL of biorelevant media (990 μL SGF, 990 μL FaSSIF, or 940 μL FaSSIF plus 50 μL Pancreatin stock) in a 2 mL HPLC vial and vortexing the mixture for a few seconds. The samples were incubated at 37° C. and aliquots were removed for up to 24 hours and injected directly on an HPLC to determine the conversion of prodrug to active drug. In the case of compound precipitation upon sample preparation, an individual sample was prepared for each desired time point and the entire sample was diluted with a known volume of acetonitrile/water (50/50) to ensure compound dissolution before HPLC analysis.

Compound | IC50 [1] [nM] | Prodrug concentration at 2 h [2] [µM] | Prodrug concentration at 2 h [3] [µM] | half-life at 1 μM (Blood stability assay) [min] | solubility [4] [µM] | Conversion in FaSSIF + Pancreatin, time ([5]; FaSSIF + pancreatin, 3 h) | Conversion in FaSSIF, time ([5]; FaSSIF, 5 h) | Conversion in SGF, time ([5]; simulated gastric fluid, 5 h)
CCOCCOCCOC(=O)OC(OC(=O)[C@H]1CC[C@H]([C@@](C)(O)c2ccc(-c3cc(C)cc(Nc4cc(C(F)F)ccn4)n3)cn2)CC1)C(C)C (stereo partly drawn) [Example 2-17, 1-(1-methylethyl)-3-oxo-2,4,7,10-tetraoxadodec-1-yl trans-4-[(1R)-1-(6-{[4-(difluoromethyl)pyridin-2-yl]amino}-4-methyl-2,3′-bipyridin-6′-yl)-1-hydroxyethyl]cyclo hexanecarboxylate] | < 0.5 | 0 | 0.371 |  |  |  |  | 
Cc1cc(Nc2cc(C(F)F)ccn2)nc(-c2ccc([C@](C)(O)[C@H]3CC[C@H](C(=O)OCOC(=O)OCCCS(C)(=O)=O)CC3)nc2)c1 [Example 7-2, ({[3-(Methylsulfonyl)propoxy]carbonyl}oxy)methyl trans-4-[(1R)-1-(6-{[4-(difluoromethyl)pyridin-2-yl]amino}-4-methyl-2,3′-bipyridin-6′-yl)-1-hydroxyethyl]cyclohexanecarboxylate] | 7.5 | 0.12 | 0.092 |  |  |  |  | 
Cc1cc(Nc2cc(C(F)F)ccn2)nc(-c2ccc([C@](C)(O)[C@H]3CC[C@H](C(=O)OCCS(C)(=O)=O)CC3)nc2)c1 [Example 1-8, 2-(methylsulfonyl)ethyl trans-4-[(1R)-1-(6-{[4-(difluoromethyl)pyridin-2-yl]amino}-4-methyl-2,3′-bipyridin-6′-yl)-1-hydroxyethyl] cyclohexanecarboxylate] | 4 |  |  | 22 |  |  |  | 
COCCN(C)C(=O)OCOC(=O)[C@H]1CC[C@H]([C@@](C)(O)c2ccc(-c3cc(C)cc(Nc4cc(C(F)F)ccn4)n3)cn2)CC1 [Example 4-2, {[(2-methoxyethyl)(methyl)carbamoyl]oxy}methyl trans-4-[(1R)-1-(6-{[4-(difluoromethyl)pyridin-2-yl]amino}-4-methyl-2,3′-bipyridin-6′-yl)-1-hydroxyethyl]cyclohexanecarboxylate] | 9.1 |  |  | 16 |  |  |  | 
CCOCCOCCOC(=O)OC(C)OC(=O)[C@H]1CC[C@H]([C@@](C)(O)c2ccc(-c3cc(C)cc(Nc4cc(C(F)F)ccn4)n3)cn2)CC1 (stereo partly drawn) [Example 2-14, 1-methyl-3-oxo-2,4,7,10-tetraoxadodec-1-yl trans-4-[(1R)-1-(6-{[4-(difluoromethyl)pyridin-2-yl]amino}-4-methyl-2,3′-bipyridin-6′-yl)-1-hydroxyethyl]cyclo hexanecarboxylate] | 30.4 |  |  | 199 |  |  |  | 
COCCN(C)C(=O)OC(C)OC(=O)[C@H]1CC[C@H]([C@@](C)(O)c2ccc(-c3cc(C)cc(Nc4cc(C(F)F)ccn4)n3)cn2)CC1 (mixture of isomers) [Example 4-1, 1-{[(2-methoxyethyl)(methyl)carbamoyl]oxy}ethyl trans-4-[(1R)-1-(6-{[4-(difluoromethyl)pyridin-2-yl]amino}-4-methyl-2,3′-bipyridin-6′-yl)-1-hydroxyethyl]cyclohexanecarboxylate] | 20.7 | 0 | 0.539 |  |  |  |  | 
Cc1cc(Nc2cc(C(F)F)ccn2)nc(-c2ccc([C@](C)(O)[C@H]3CC[C@H](C(=O)OCn4cc[n+](C)c4)CC3)nc2)c1 [Example 6-1, 1-{[({Trans-4-[(1R)-1-(6-{[4-(Difluoromethyl)pyridin-2-yl]amino}-4-methyl-2,3′-bipyridin-6′-yl)-1-hydroxyethyl]cyclohexyl}carbonyl)oxy]methyl}-3-methyl-1H-imidazol-3-ium] | 0.8 | 0.622 | 0.844 | 24 | 140 |  |  | 
Cc1cc(Nc2cc(C(F)F)ccn2)nc(-c2ccc([C@](C)(O)[C@H]3CC[C@H](C(=O)OCOC(=O)CC(C)(C)O)CC3)nc2)c1 [Example 3-4, [(3-hydroxy-3-methylbutanoyl)oxy] methyl trans-4-[(1R)-1-(6-{[4-(difluoromethyl)pyridin-2-yl]amino}-4-methyl-2,3′-bipyridin-6′-yl)-1-hydroxyethyl]cyclohexane carboxylate] | 1.8 |  |  | 14 | 59 (≈ 36.1 µg/mL) |  |  | 
Cc1cc(Nc2cc(C(F)F)ccn2)nc(-c2ccc([C@](C)(O)[C@H]3CC[C@H](C(=O)OCC[S@@+](C)[O-])CC3)nc2)c1 (single isomer, unassigned) [Example 7-1a] | 4.2 | 0 | 0.385 |  | 56 (≈ 32.1 µg/mL) |  |  | 
Cc1cc(Nc2cc(C(F)F)ccn2)nc(-c2ccc([C@](C)(O)[C@H]3CC[C@H](C(=O)OCOC(=O)OCCOCCOCCOCCOP(=O)(O)O)CC3)nc2)c1 [Example 8-1, 17,17-Dihydroxy-17-oxido-3-oxo-2,4,7,10,13,16-hexaoxa-17λ^5-phosphaheptadec-1-yl trans-4-[(1R)-1-(6-{[4-(difluoromethyl)pyridin-2-yl]amino}-4-methyl-2,3′-bipyridin-6′-yl)-1-hydroxyethyl]cyclohexanecarboxylate] | < 0.5 | 0 | 0 |  | 154 (≈ 125 µg/mL) |  |  | 
Cc1cc(Nc2cc(C(F)F)ccn2)nc(-c2ccc([C@](C)(O)[C@H]3CC[C@H](C(=O)OCCOP(=O)(O)O)CC3)nc2)c1 [Example 8-2, 2-(phosphonooxy)ethyl trans-4-[(1R)-1-(6-{[4-(difluoromethyl)pyridin-2-yl]amino}-4-methyl-2,3′-bipyridin-6′-yl)-1-hydroxyethyl]cyclohexane-carboxylate] | < 0.5 | 0.434 | 0.249 |  | 161 (≈ 97.7 µg/mL) | 20%, 3 h | 0%, 5 h | 0%, 5 h
COCCOCCOCC(=O)OCOC(=O)[C@H]1CC[C@H]([C@@](C)(O)c2ccc(-c3cc(C)cc(Nc4cc(C(F)F)ccn4)n3)cn2)CC1 [Example 3-29, 3-oxo-2,5,8,11-tetraoxadodec-1-yl trans-4-[(1R)-1-(6-{[4-(difluoromethyl)pyridin-2-yl]amino}-4-methyl-2,3′-bipyridin-6′-yl)-1-hydroxyethyl]cyclohexane carboxylate] | 1.2 |  |  | 29 | 41 (≈ 27.6 µg/mL) |  |  | 
